pEC50: −log10 of the molar value. Activity calls are given as the source filed them. No cut-off for these calls is given here.
Target: not listed separately
Test: Activity against bovine Hsp70 ATPase activity
Parameters: species or system Bos taurus

Row | pEC50 | Structure (SMILES)
1 | < 3.40 | CCOC(=O)C1=C(C)N(CCCC(=O)N[C@H](CC(=O)N[C@H](CC(=O)NCCC(=O)O)c2ccccc2)CC(C)C)C(=O)NC1c1ccc(Br)cc1 (some centres undefined)
2 | < 3.40 | CCOC(=O)C1=C(C)N(CCCC(=O)N[C@H](CC(=O)N[C@H](CC(=O)NCCC(=O)O)CC(C)C)CC(C)C)C(=O)NC1c1ccc(Br)cc1 (some centres undefined)
3 | < 3.40 | CCOC(=O)C1=C(C)N(CCCC(=O)N[C@H](CC(=O)NCCC(=O)O)C(C)C)C(=O)NC1c1ccc(Br)cc1 (some centres undefined)
4 | < 3.40 | CCOC(=O)C1=C(C)N(CCCC(=O)NCCC(=O)NCCC(=O)NCCC(=O)O)C(=O)NC1c1ccc(Br)cc1 (centres undefined)
5 | < 3.40 | CCOC(=O)C1=C(C)N(CCCC(=O)N[C@H](CC(=O)NCCC(=O)O)CC(C)C)C(=O)NC1c1ccc(Br)cc1 (some centres undefined)
6 | < 3.40 | CCOC(=O)C1=C(C)N(CCCC(=O)NCCC(=O)NCCC(=O)O)C(=O)NC1c1ccc(Br)cc1 (centres undefined)
7 | < 3.40 | CCOC(=O)C1=C(C)N(CCCC(=O)N[C@H](CC(=O)NCCC(=O)O)c2ccccc2)C(=O)NC1c1ccc(Br)cc1 (some centres undefined)
8 | < 3.40 | CCOC(=O)C1=C(C)N(CCCC(=O)N[C@H](CC(=O)NCCC(=O)O)[C@@H](C)CC)C(=O)NC1c1ccc(Br)cc1 (some centres undefined)
9 | < 3.40 | CCOC(=O)C1=C(C)N(CCCC(=O)O)C(=O)NC1c1ccc(Br)cc1 (centres undefined)
10 | < 3.40 | CCOC(=O)C1=C(C)N(CCCC(=O)N[C@@H](CCCCN)CC(=O)NCCC(=O)O)C(=O)NC1c1ccc(Br)cc1 (some centres undefined)

Test system: not listed separately
Test: Activity against Escherichia coli DnaK ATPase activity

Row | pEC50 | Structure (SMILES)
11 | < 3.40 | CCOC(=O)C1=C(C)N(CCCC(=O)N[C@H](CC(=O)N[C@H](CC(=O)NCCC(=O)O)c2ccccc2)CC(C)C)C(=O)NC1c1ccc(Br)cc1 (some centres undefined)
12 | < 3.40 | CCOC(=O)C1=C(C)N(CCCC(=O)N[C@H](CC(=O)N[C@H](CC(=O)NCCC(=O)O)CC(C)C)CC(C)C)C(=O)NC1c1ccc(Br)cc1 (some centres undefined)
13 | < 3.40 | CCOC(=O)C1=C(C)N(CCCC(=O)N[C@H](CC(=O)NCCC(=O)O)C(C)C)C(=O)NC1c1ccc(Br)cc1 (some centres undefined)
14 | < 3.40 | CCOC(=O)C1=C(C)N(CCCC(=O)NCCC(=O)NCCC(=O)NCCC(=O)O)C(=O)NC1c1ccc(Br)cc1 (centres undefined)
15 | < 3.40 | CCOC(=O)C1=C(C)N(CCCC(=O)N[C@H](CC(=O)NCCC(=O)O)CC(C)C)C(=O)NC1c1ccc(Br)cc1 (some centres undefined)
16 | < 3.40 | CCOC(=O)C1=C(C)N(CCCC(=O)NCCC(=O)NCCC(=O)O)C(=O)NC1c1ccc(Br)cc1 (centres undefined)
17 | < 3.40 | CCOC(=O)C1=C(C)N(CCCC(=O)N[C@H](CC(=O)NCCC(=O)O)c2ccccc2)C(=O)NC1c1ccc(Br)cc1 (some centres undefined)
18 | < 3.40 | CCOC(=O)C1=C(C)N(CCCC(=O)N[C@H](CC(=O)NCCC(=O)O)[C@@H](C)CC)C(=O)NC1c1ccc(Br)cc1 (some centres undefined)
19 | < 3.40 | CCOC(=O)C1=C(C)N(CCCC(=O)O)C(=O)NC1c1ccc(Br)cc1 (centres undefined)
20 | < 3.40 | CCOC(=O)C1=C(C)N(CCCC(=O)N[C@@H](CCCCN)CC(=O)NCCC(=O)O)C(=O)NC1c1ccc(Br)cc1 (some centres undefined)

Target: not listed separately
Test: Activation of bovine Hsp70 ATPase activity
Parameters: species or system Bos taurus

Row | pEC50 | Structure (SMILES)
21 | 3.45 | CCOC(=O)C1=C(C)N(CCCC(=O)N[C@@H](CCCCN)CC(=O)N[C@H](CC(=O)NCCC(=O)O)[C@@H](C)CC)C(=O)NC1c1ccc(Br)cc1 (some centres undefined)
22 | 3.75 | CCOC(=O)C1=C(C)N(CCCC(=O)N[C@H](CC(=O)NCCC(=O)O)Cc2cccc3ccccc23)C(=O)NC1c1ccc(Br)cc1 (some centres undefined)
23 | 3.67 | CCOC(=O)C1=C(C)N(CCCC(=O)OC)C(=O)NC1c1ccc(Br)cc1 (centres undefined)
24 | 3.59 | CCOC(=O)C1=C(C)N(CCCC(=O)N[C@H](CC(=O)N[C@H](CC(=O)NCCC(=O)O)Cc2cccc3ccccc23)C(C)C)C(=O)NC1c1ccc(Br)cc1 (some centres undefined)
25 | 3.72 | CCOC(=O)C1=C(C)N(CCCC(=O)N[C@@H](CCc2ccccc2)CC(=O)NCCC(=O)O)C(=O)NC1c1ccc(Br)cc1 (some centres undefined)

Test system: not listed separately
Test: (§1) Activation of Escherichia coli DnaK ATPase activity

Row | pEC50 | Structure (SMILES)
26 | 3.72 | CCOC(=O)C1=C(C)N(CCCC(=O)N[C@H](CC(=O)NCCC(=O)O)Cc2cccc3ccccc23)C(=O)NC1c1ccc(Br)cc1 (some centres undefined)

Test system: Escherichia coli
Test: as §1

Row | Activity | Structure (SMILES)
27 | inactive | CCOC(=O)C1=C(C)N(CCCC(=O)N[C@@H](CCCCN)CC(=O)N[C@H](CC(=O)NCCC(=O)O)[C@@H](C)CC)C(=O)NC1c1ccc(Br)cc1 (some centres undefined)
28 | inactive | CCOC(=O)C1=C(C)N(CCCC(=O)OC)C(=O)NC1c1ccc(Br)cc1 (centres undefined)
29 | inactive | CCOC(=O)C1=C(C)N(CCCC(=O)N[C@H](CC(=O)N[C@H](CC(=O)NCCC(=O)O)Cc2cccc3ccccc23)C(C)C)C(=O)NC1c1ccc(Br)cc1 (some centres undefined)
30 | inactive | CCOC(=O)C1=C(C)N(CCCC(=O)N[C@@H](CCc2ccccc2)CC(=O)NCCC(=O)O)C(=O)NC1c1ccc(Br)cc1 (some centres undefined)

Target: not listed separately
Test: Inhibition of bovine Hsp70 ATPase activity
Parameters: species or system Bos taurus

Row | pEC50 | Structure (SMILES)
31 | 3.58 | CCOC(=O)C1=C(C)N(CCCC(=O)N[C@@H](CCc2ccccc2)CC(=O)N[C@@H](CCCCN)CC(=O)NCCC(=O)O)C(=O)NC1c1ccc(Br)cc1 (some centres undefined)
32 | 3.98 | CCOC(=O)C1=C(C)N(CCCC(=O)N[C@@H](CCCCN)CC(=O)N[C@@H](CCc2ccccc2)CC(=O)NCCC(=O)O)C(=O)NC1c1ccc(Br)cc1 (some centres undefined)

Test system: not listed separately
Test: Inhibition of Escherichia coli DnaK ATPase activity

Row | pEC50 | Structure (SMILES)
33 | 3.49 | CCOC(=O)C1=C(C)N(CCCC(=O)N[C@@H](CCc2ccccc2)CC(=O)N[C@@H](CCCCN)CC(=O)NCCC(=O)O)C(=O)NC1c1ccc(Br)cc1 (some centres undefined)
34 | 3.97 | CCOC(=O)C1=C(C)N(CCCC(=O)N[C@@H](CCCCN)CC(=O)N[C@@H](CCc2ccccc2)CC(=O)NCCC(=O)O)C(=O)NC1c1ccc(Br)cc1 (some centres undefined)
